Data taken from patent US20220402916A1, “SMALL MOLECULE INHIBITORS OF KRAS G12C MUTANT” (Merck Sharp & Dohme Corp., priority 2019, published 2022).

The compounds below were run against T1, Biotinylated KRAS G12C protein (Homo sapiens, UniProt P01116, C118S/C51S/C80L/G12C) (assay: SOS-catalyzed nucleotide exchange assay). Settings: 10,000 nM; 60 minutes of preincubation prior to addition of SOS.
T1 construct: 183 amino acids; biotin on K10
Assay type: biochemical
Procedure: Compounds are added to this complex, and then after 60 minute incubation time the mixture is treated with recombinant SOS protein and unlabeled GTP. Small molecule inhibitors stabilize the Bodipy-GDP complex whereas the untreated protein rapidly exchanges Bodipy-GDP for unlabeled GTP resulting in reduced TR-FRET signal. […] This mixture is then further diluted to 90 nM in an assay buffer (20 mM HEPES, 150 mM sodium chloride, 10 mM magnesium chloride, and 0.005% Tween) containing 15 nM of Terbium-Streptavidin (Invitrogen, catalog #PV3577) and 900 nM of Bodipy-GDP and incubated at room temperature for six hours. […] Each test compound (10 mM stock in DMSO) is diluted in DMSO to make a 10-point, 3-fold dilution series in a 384-well low dead volume microplate (Labcyte, catalog #LP-0200). Once titrations are made, 10 nL of the diluted compounds is acoustically dispensed into a 384-well assay plate (Corning, catalog #3820) using an Echo 550 (Labcyte). […] Each well then receives 3 μL of 240 nM recombinant human SOS protein and 9 mM GTP (Sigma, G8877) in assay buffer and is incubated at room temperature for 60 minutes. The time-resolved fluorescence resonance energy transfer signal for the assay plate is measured on an Envision (PerkinElmer) plate reader: Excitation filter=340 nm; emission1=495 nm; emission2=520 nm; dichroic mirror=D400/D505; delay time=100 μs. The signal of each well is determined as the ratio of the emission at 520 nm to that at 495 nm. […] The apparent effect as a function of compound concentration is fit to a four parameter logistic equation.

T1 sequence (P01116 with tags, fused parts or gaps isoform P01116-2 G12C/C51S/C80L/C118S): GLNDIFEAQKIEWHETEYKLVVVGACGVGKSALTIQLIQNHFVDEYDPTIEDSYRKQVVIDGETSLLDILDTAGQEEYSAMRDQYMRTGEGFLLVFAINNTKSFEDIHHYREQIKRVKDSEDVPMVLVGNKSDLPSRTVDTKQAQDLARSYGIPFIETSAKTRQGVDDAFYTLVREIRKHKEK

inhibition at 10 µM [%] | SMILES
30 | C=CC(=O)N1CCN(c2cc(C(=O)NC(CC(C)C)CN(C)C)nc3c2CCN(c2cccc4cccc(C)c24)C3)CC1 (racemic) [Compound 20, rac-4-(4-acryloylpiperazin-1-yl)-N-(1-(dimethylamino)-4-methylpentan-2-yl)-7-(8-methylnaphthalen-1-yl)-5,6,7,8-tetrahydro-1,7-naphthyridine-2-carboxamide]
29 | C=CC(=O)N1CCN(c2cc(C(=O)N[C@@H]3COC[C@@H]3N3CCOCC3)nc3c2CCN(c2cccc4cccc(C)c24)C3)CC1 (racemic) [Compound 27, rac-4-(4-acryloylpiperazin-1-yl)-7-(8-methylnaphthalen-1-yl)-N-(cis-4-morpholinotetrahydrofuran-3-yl)-5,6,7,8-tetrahydro-1,7-naphthyridine-2-carboxamide]
39 | C=CC(=O)N1CCN(c2cc(C(=O)N[C@H]3COC[C@@H]3N3CCOCC3)nc3c2CCN(c2cccc4cccc(C)c24)C3)CC1 (racemic) [Compound 35, rac-4-(4-acryloylpiperazin-1-yl)-7-(8-methylnaphthalen-1-yl)-N-(trans-4-morpholinotetrahydrofuran-3-yl)-5,6,7,8-tetrahydro-1,7-naphthyridine-2-carboxamide]

Same assay, conditions: apparent potency; preincubation time of 60 minutes prior to addition of SOS

IC50 [nM] | SMILES
1690 | C=CC(=O)N1CCN(c2cc(C(=O)NC(C)CN(C)C)nc3c2CCN(c2cccc4ccccc24)C3)CC1 (racemic) [Compound 6, rac-4-(4-acryloylpiperazin-1-yl)-N-(1-(dimethylamino)propan-2-yl)-7-(naphthalen-1-yl)-5,6,7,8-tetrahydro-1,7-naphthyridine-2-carboxamide]
962 | C=CC(=O)N1CCN(c2cc(C(=O)NC(CO)CN(C)C)nc3c2CCN(c2cccc4cccc(C)c24)C3)CC1 (racemic) [Compound 16, rac-4-(4-acryloylpiperazin-1-yl)-N-(1-(dimethylamino)-3-hydroxypropan-2-yl)-7-(8-methylnaphthalen-1-yl)-5,6,7,8-tetrahydro-1,7-naphthyridine-2-carboxamide]
145 | C=CC(=O)N1CCN(c2cc(C(=O)NC(CN(C)C)C(C)C)nc3c2CCN(c2cccc4cccc(C)c24)C3)CC1 (racemic) [Compound 18, rac-4-(4-acryloylpiperazin-1-yl)-N-(1-(dimethylamino)-3-methylbutan-2-yl)-7-(8-methylnaphthalen-1-yl)-5,6,7,8-tetrahydro-1,7-naphthyridine-2-carboxamide]
3740 | C=CC(=O)N1CCN(c2cc(C(=O)NC(C)CN(CC)CC)nc3c2CCN(c2cccc4cccc(C)c24)C3)CC1 (racemic) [Compound 19, rac-4-(4-acryloylpiperazin-1-yl)-N-(1-(diethylamino)propan-2-yl)-7-(8-methylnaphthalen-1-yl)-5,6,7,8-tetrahydro-1,7-naphthyridine-2-carboxamide]
3180 | C=CC(=O)N1CCN(c2cc(C(=O)NC(C)CCN(C)C)nc3c2CCN(c2cccc4cccc(C)c24)C3)CC1 (racemic) [Compound 21, rac-4-(4-acryloylpiperazin-1-yl)-N-(4-(dimethylamino)butan-2-yl)-7-(8-methylnaphthalen-1-yl)-5,6,7,8-tetrahydro-1,7-naphthyridine-2-carboxamide]
468 | C=CC(=O)N1CCN(c2cc(C(=O)N[C@H]3CC[C@@H]3N)nc3c2CCN(c2cccc4cccc(C)c24)C3)CC1 (racemic) [Compound 37, rac-4-(4-acryloylpiperazin-1-yl)-N-(trans-2-aminocyclobutyl)-7-(8-methylnaphthalen-1-yl)-5,6,7,8-tetrahydro-1,7-naphthyridine-2-carboxamide]
4770 | C=CC(=O)N1CCN(c2cc(C(=O)N[C@@H]3C[C@@H]3N)nc3c2CCN(c2cccc4cccc(C)c24)C3)CC1 (racemic) [Compound 38, rac-4-(4-acryloylpiperazin-1-yl)-N-(cis-2-aminocyclopropyl)-7-(8-methylnaphthalen-1-yl)-5,6,7,8-tetrahydro-1,7-naphthyridine-2-carboxamide]

Second part, the compound before the results:

SMILES | IC50 [nM]
C=CC(=O)N1CCN(c2cc(C(=O)NCC(C)N(C)C)nc3c2CCN(c2cccc4ccccc24)C3)CC1 (racemic) [Compound 5, rac-4-(4-acryloylpiperazin-1-yl)-N-(2-(dimethylamino)propyl)-7-(naphthalen-1-yl)-5,6,7,8-tetrahydro-1,7-naphthyridine-2-carboxamide] | 6020
C=CC(=O)N1CCN(c2cc(C(=O)N[C@@H]3CCC[C@H]3N(C)C)nc3c2CCN(c2cccc4ccccc24)C3)CC1 (racemic) [Compound 7, rac-4-(4-acryloylpiperazin-1-yl)-N-(trans-2-(dimethylamino)cyclo-pentyl)-7-(naphthalen-1-yl)-5,6,7,8-tetrahydro-1,7-naphthyridine-2-carboxamide] | 1590
C=CC(=O)N1CCN(c2cc(C(=O)N[C@H]3COC[C@H]3N)nc3c2CCN(c2cccc4cccc(C)c24)C3)CC1 (racemic) [Compound 28, rac-4-(4-acryloylpiperazin-1-yl)-N-(cis-4-aminotetrahydrofuran-3-yl)-7-(8-methylnaphthalen-1-yl)-5,6,7,8-tetrahydro-1,7-naphthyridine-2-carboxamide] | 7320
C=CC(=O)N1CCN(c2cc(C(=O)N[C@@H]3CCC[C@H]3N(C)C)nc3c2CCN(c2cccc4cccc(C)c24)C3)CC1 (racemic) [Compound 29, rac-4-(4-acryloylpiperazin-1-yl)-N-(trans-2-(dimethylamino)cyclopentyl)-7-(8-methylnaphthalen-1-yl)-5,6,7,8-tetrahydro-1,7-naphthyridine-2-carboxamide] | 259
C=CC(=O)N1CCN(c2cc(C(=O)N[C@H]3COC[C@@H]3N(C)C)nc3c2CCN(c2cccc4cccc(C)c24)C3)CC1 (racemic) [Compound 32, rac-4-(4-acryloylpiperazin-1-yl)-N-(trans-4-(dimethylamino)tetrahydro-furan-3-yl)-7-(8-methylnaphthalen-1-yl)-5,6,7,8-tetrahydro-1,7-naphthyridine-2-carboxamide] | 4470
C=CC(=O)N1CCN(c2cc(C(=O)N[C@H]3COC[C@@H]3N3CCN(C)CC3)nc3c2CCN(c2cccc4cccc(C)c24)C3)CC1 (racemic) [Compound 33, rac-4-(4-acryloylpiperazin-1-yl)-7-(8-methylnaphthalen-1-yl)-N-(trans-4-(4-methylpiperazin-1-yl)tetrahydrofuran-3-yl)-5,6,7,8-tetrahydro-1,7-naphthyridine-2-carboxamide] | 6650
C=CC(=O)N1CCN(c2cc(C(=O)N[C@H]3CCC[C@@H]3N3CCOCC3)nc3c2CCN(c2cccc4cccc(C)c24)C3)CC1 (racemic) [Compound 34, rac-4-(4-acryloylpiperazin-1-yl)-7-(8-methylnaphthalen-1-yl)-N-(trans-2-morpholinocyclopentyl)-5,6,7,8-tetrahydro-1,7-naphthyridine-2-carboxamide] | 3570
C=CC(=O)N1CCN(c2cc(C(=O)N[C@H]3COC[C@@H]3N)nc3c2CCN(c2cccc4cccc(C)c24)C3)CC1 (racemic) [Compound 36, rac-4-(4-acryloylpiperazin-1-yl)-N-(trans-4-aminotetrahydrofuran-3-yl)-7-(8-methylnaphthalen-1-yl)-5,6,7,8-tetrahydro-1,7-naphthyridine-2-carboxamide] | 1520
C=CC(=O)N1CCN(c2cc(C(=O)NC3CCCC(N(C)C)C3)nc3c2CCN(c2cccc4cccc(C)c24)C3)CC1 (racemic) [Compound 40, rac-(cis,trans)-4-(4-acryloylpiperazin-1-yl)-N-(3-(dimethylamino)cyclohexyl)-7-(8-methylnaphthalen-1-yl)-5,6,7,8-tetrahydro-1,7-naphthyridine-2-carboxamide] | 3540
C=CC(=O)N1CCN(c2cc(C(=O)N3CCCC3CN3CCCCC3)nc3c2CCN(c2cccc4cccc(C)c24)C3)CC1 (racemic) [Compound 44, rac-1-(4-(7-(8-methylnaphthalen-1-yl)-2-(2-(piperidin-1-ylmethyl)pyrrolidine-1-carbonyl)-5,6,7,8-tetrahydro-1,7-naphthyridin-4-yl)piperazin-1-yl)prop-2-en-1-one] | 7870
C=CC(=O)N1CCN(c2cc(C(=O)N3CCCC3CN3CCCCCC3)nc3c2CCN(c2cccc4cccc(C)c24)C3)CC1 (racemic) [Compound 45, rac-1-(4-(2-(2-(azepan-1-ylmethyl)pyrrolidine-1-carbonyl)-7-(8-methylnaphthalen-1-yl)-5,6,7,8-tetrahydro-1,7-naphthyridin-4-yl)piperazin-1-yl)prop-2-en-1-one] | 5350
C=CC(=O)N1CCN(c2cc(C(=O)N3CCCCC3CN3CCCC3)nc3c2CCN(c2cccc4cccc(C)c24)C3)CC1 (racemic) [Compound 46, rac-1-(4-(7-(8-methylnaphthalen-1-yl)-2-(2-(pyrrolidin-1-ylmethyl)piperidine-1-carbonyl)-5,6,7,8-tetrahydro-1,7-naphthyridin-4-yl)piperazin-1-yl)prop-2-en-1-one] | 8880
